According to US20210032257A1, “(E)-1-(4-(DIMETHYLAMINO)BUT-2-ENOYL)PYRROLIDIN-3-YL 4-((3-ISOPROPYL-5-METHYLPYRAZOLO[1,5-A]PYRIMIDIN-7-YL)AMINO)PIPERIDINE-1-CARBOXYLATE FOR INHIBITING CDK7” (Eli Lilly and Company, priority 2017, published 2021):

Legend:
Assay in all cases: Biomarker study proliferation (CellTiter-Glo)
Assay type in all cases: cell-based
22RV1 = system: 22RV1
In short: (§1)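 Profiling across cell lines annotated for ARID1A, KMT2C, KMT2D or RB1 alterations used CellTiter-Glo viability after 7 days' treatment. Responses were classed insensitive, cytostatic or cytotoxic using IC50 1 μM and 70% inhibition cut-offs.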

A2780 = system: A2780
In short: as §1

C33A = system: C33A
In short: as §1

DMS273 = system: DMS273
In short: as §1

DU145 = system: DU145
In short: as §1

EGL1 = system: EGL1
In short: as §1

EVSAT = system: EVSAT
In short: as §1

HLF = system: HLF
In short: as §1

JHH4 = system: JHH4
In short: as §1

JHH7 = system: JHH7
In short: as §1

NCIH520 = system: NCIH520
In short: as §1

NCIH69 = system: NCIH69
In short: as §1

NUGC3 = system: NUGC3
In short: as §1

OAW42 = system: OAW42
In short: as §1

RT112 = system: RT112
In short: as §1

SKMEL28 = system: SKMEL28
In short: as §1

SNU387 = system: SNU387
In short: as §1

SNU449 = system: SNU449
In short: as §1

TEK1 = system: TEK1
In short: as §1

[1] = 168 h, read-out: Anti-proliferation effect IC50

Cc1cc(NC2CCN(C(=O)O[C@H]3CCN(C(=O)/C=C/CN(C)C)C3)CC2)n2ncc(C(C)C)c2n1 [Example 1, [(3S)-1-[(E)-4-(dimethylamino)but-2-enoyl]pyrrolidin-3-yl] 4-[(3-isopropyl-5-methyl-pyrazolo[1,5-a]pyrimidin-7-yl)amino]piperidine-1-carboxylate]
Anti-proliferation effect % Inh. (22RV1; 22RV1, PROSTATE, 7 days): 77% | Anti-proliferation effect Outcome (22RV1; 22RV1, PROSTATE, 7 days): Cytotoxic (cytotoxic (IC50<1 μM and % inhibition ≥70%)) | IC50 (22RV1; Homo sapiens, 22Rv1, 168 h, read-out: Anti-proliferation effect IC50): 28 nM | Anti-proliferation effect % Inh. (A2780; A2780, OVARY, 7 days): 74% | Anti-proliferation effect Outcome (A2780; A2780, OVARY, 7 days): Cytotoxic (cytotoxic (IC50<1 μM and % inhibition ≥70%)) | IC50 (A2780; Homo sapiens, A2780, 168 h, read-out: Anti-proliferation effect IC50): 52 nM | Anti-proliferation effect % Inh. (C33A; C33A, CERVIX, 7 days): 79% | Anti-proliferation effect Outcome (C33A; C33A, ENDOMETRIUM, 7 days): Cytotoxic (cytotoxic (IC50<1 μM and % inhibition ≥70%)) | IC50 (C33A; Homo sapiens, C-33-A, 168 h, read-out: Anti-proliferation effect IC50): 14 nM | Anti-proliferation effect % Inh. (DMS273; DMS273, LUNG, 7 days): 80% | Anti-proliferation effect Outcome (DMS273; DMS273, LUNG, 7 days): Cytotoxic (cytotoxic (IC50<1 μM and % inhibition ≥70%)) | IC50 (DMS273; Homo sapiens, DMS-273, 168 h, read-out: Anti-proliferation effect IC50): 19 nM | Anti-proliferation effect % Inh. (DU145; DU145, PROSTATE, 7 days): 74% | Anti-proliferation effect Outcome (DU145; DU145, PROSTATE, 7 days): Cytotoxic (cytotoxic (IC50<1 μM and % inhibition ≥70%)) | IC50 (DU145; Homo sapiens, DU-145, 168 h, read-out: Anti-proliferation effect IC50): 36 nM | IC50 (EGL1; [1]): 41 nM | Anti-proliferation effect % Inh. (EGL1; EGL1, 7 days): 95% | Anti-proliferation effect Outcome (EGL1; EGL1, 7 days): Cytotoxic (cytotoxic (IC50<1 μM and % inhibition ≥70%)) | Anti-proliferation effect % Inh. (EVSAT; EVSAT, BREAST, 7 days): 79% | Anti-proliferation effect Outcome (EVSAT; EVSAT, BREAST, 7 days): Cytotoxic (cytotoxic (IC50<1 μM and % inhibition ≥70%)) | IC50 (EVSAT; Homo sapiens, EVSA-T, 168 h, read-out: Anti-proliferation effect IC50): 40 nM | IC50 (HLF; [1]): 17 nM | Anti-proliferation effect % Inh. (HLF; LIVER, 7 days): 100% | Anti-proliferation effect Outcome (HLF; LIVER, 7 days): Cytotoxic (cytotoxic (IC50<1 μM and % inhibition ≥70%)) | Anti-proliferation effect % Inh. (JHH4; JHH4, LIVER, 7 days): 65% | Anti-proliferation effect Outcome (JHH4; JHH4, LIVER, 7 days): Cytostatic (cytostatic (IC50<1 μM and % inhibition <70%)) | IC50 (JHH4; JHH-4, 168 h, read-out: Anti-proliferation effect IC50): 166 nM | IC50 (JHH7; JHH7, 168 h, read-out: Anti-proliferation effect IC50): 27 nM | Anti-proliferation effect % Inh. (JHH7; JHH7, LIVER, 7 days): 88% | Anti-proliferation effect Outcome (JHH7; JHH7, LIVER, 7 days): Cytotoxic (cytotoxic (IC50<1 μM and % inhibition ≥70%)) | IC50 (NCIH520; Homo sapiens, NCI-H520, 168 h, read-out: Anti-proliferation effect IC50): 82 nM | Anti-proliferation effect % Inh. (NCIH520; NCIH520, LUNG, 7 days): 77% | Anti-proliferation effect Outcome (NCIH520; NCIH520, LUNG, 7 days): Cytotoxic (cytotoxic (IC50<1 μM and % inhibition ≥70%)) | IC50 (NCIH69; Homo sapiens, NCI-H69, 168 h, read-out: Anti-proliferation effect IC50): 173 nM | Anti-proliferation effect % Inh. (NCIH69; NCIH69, LUNG, 7 days): 68% | Anti-proliferation effect Outcome (NCIH69; NCIH69, LUNG, 7 days): Cytostatic (cytostatic (IC50<1 μM and % inhibition <70%)) | IC50 (NUGC3; Homo sapiens, NUGC-3, 168 h, read-out: Anti-proliferation effect IC50): 30 nM | Anti-proliferation effect % Inh. (NUGC3; NUGC3, STOMACH, 7 days): 81% | Anti-proliferation effect Outcome (NUGC3; NUGC3, STOMACH, 7 days): Cytotoxic (cytotoxic (IC50<1 μM and % inhibition ≥70%)) | IC50 (OAW42; Homo sapiens, OAW-42, 168 h, read-out: Anti-proliferation effect IC50): 136 nM | Anti-proliferation effect % Inh. (OAW42; OAW42, OVARY, 7 days): 88% | Anti-proliferation effect Outcome (OAW42; OAW42, OVARY, 7 days): Cytotoxic (cytotoxic (IC50<1 μM and % inhibition ≥70%)) | IC50 (RT112; Homo sapiens, RT-112, 168 h, read-out: Anti-proliferation effect IC50): 32 nM | Anti-proliferation effect % Inh. (RT112; RT112, URINARY, 7 days): 87% | Anti-proliferation effect Outcome (RT112; RT112, URINARY, 7 days): Cytotoxic (cytotoxic (IC50<1 μM and % inhibition ≥70%)) | IC50 (SKMEL28; Homo sapiens, SK-MEL-28, 168 h, read-out: Anti-proliferation effect IC50): 98 nM | Anti-proliferation effect % Inh. (SKMEL28; SKMEL28, SKIN, 7 days): 61% | Anti-proliferation effect Outcome (SKMEL28; SKMEL28, SKIN, 7 days): Cytostatic (cytostatic (IC50<1 μM and % inhibition <70%)) | IC50 (SNU387; Homo sapiens, SNU-387, 168 h, read-out: Anti-proliferation effect IC50): > 10000 nM | Anti-proliferation effect % Inh. (SNU387; SNU387, LIVER, 7 days): 12% | Anti-proliferation effect Outcome (SNU387; SNU387, LIVER, 7 days): Insensitive (insensitive (IC50≥1 μM)) | IC50 (SNU449; Homo sapiens, SNU-449, 168 h, read-out: Anti-proliferation effect IC50): 1520 nM | Anti-proliferation effect % Inh. (SNU449; SNU449, LIVER, 7 days): 8% | Anti-proliferation effect Outcome (SNU449; SNU449, LIVER, 7 days): Insensitive (insensitive (IC50≥1 μM)) | IC50 (TEK1; [1]): 40 nM | Anti-proliferation effect % Inh. (TEK1; TEK1, BILIARY, 7 days): 87% | Anti-proliferation effect Outcome (TEK1; TEK1, BILIARY, 7 days): Cytotoxic (cytotoxic (IC50<1 μM and % inhibition ≥70%))
